# Measurements as given in patent US20060269938A1, “Polynucleotides encoding insect plasma membrane ca2+ ATPase and uses thereof” (priority 2005, published 2006).
# pIC50: −log10 of the molar value.
# How the values were obtained:
# PMCA = experiment: pyruvate kinase/lactate dehydrogenase-coupled assay that measures ADP formation; type: biochemical, Heliothis virescens; conditions: fit to simple hyperbolic equation; decrease in absorbance at 340 nm; PMCA 0.20 mg/mL; FIG. 3; read-out: K1/2 for ATP, PMCA reaction rate
# Protocol: The PMCA reaction rate is dependent on the ATP concentration. The K1/2 for ATP was measured using a pyruvate kinase/lactate dehydrogenase-coupled assay that measures ADP formation. The final concentrations of PMCA and ATP were […]. The rates of decrease in absorbance at 340 nm were measured for each concentration of ATP. The line gives the fit to a simple hyperbolic equation with K1/2=0.013 mM and amplitude=0.022 OD/min. Vmax =50.0 nmol.min^−1.mg^−1. was obtained for PMCA activity under the conditions described.
# [1] = target: recombinant Heliothis virescens PMCA; experiment: PMCA activity assay, luciferase-luciferin luminescence measurement of remaining ATP; type: biochemical
# Protocol: The assay for PMCA is based on the use of the luciferase-luciferin luminescence reaction to measure ATP. PMCA hydrolyzes ATP in the presence of Ca^2+and the ATP that remains is measured. Membrane vesicles from Sf9 cells expressing recombinant Heliothis virescens PMCA are provided with the assay.
# The assay protocol is designed for a 384-well microtiter plate format, but other multi-well formats or other formats may also be used. The reaction is started by the addition of the PMCA enzyme. The negative control reactions contain eosin, an inhibitor of PMCA. Reaction mixtures are incubated at room temperature (22-24° C.) for 60 minutes, followed by the addition of the luciferase-luciferin mix. The plates are immediately read for luminescence.
# The luciferin-luciferase readout measures the concentration of ATP in reaction mixtures. Light emission by the luciferase is proportional to the concentration of ATP when its value is less than 0.010 mM. PMCA consumes ATP in a Ca^2+-dependent hydrolysis reaction. […]
# A volume of 0.005 mL of the HI solution increasing concentrations of eosin was placed in the wells of a 384-well microtiter plate, and a volume of 0.020 mL of the H2 solution was added. […] A volume of 0.035 mL of the H4 reaction mixture was then added to each well of the plate and the luminescence was measured. The decrease in relative light units (RLU) in reaction time t=60 minutes was measured. […]
compound,measurement,setting,value
Nc1ncnc2c1ncn2[C@@H]1O[C@H](COP(=O)(O)OP(=O)(O)OP(=O)(O)O)[C@@H](O)[C@H]1O [ATP],Km,PMCA,13 µM
"O=C1OC2(c3ccccc31)c1cc(Br)c(O)c(Br)c1Oc1c2cc(Br)c(O)c1Br [eosin, reference compound]",pIC50,"[1]; membrane vesicles from Sf9 cells, room temperature (22-24° C.), 60 minutes, FIG. 5, read-out: IC50 of inhibition of PMCA activity (rates of ATP consumption)",7.92
[Ca+2] [Ca^2+],"K1/2 for Ca2+, PMCA reaction rate","[1]; fit to simple hyperbolic equation, rates of decrease in RLU, ATP 0.010 mM, PMCA 0.010 mg/mL, FIG. 4",1.5 µM
